The record followed here is patent publication US10945978B2, “Treatment and diagnosis of melanoma” (The Rockefeller University, priority 2012, dated 2021).

Structures can show the parent of a compound that is named as a salt.

Assay [1] concerns MeWo, MeWo-LM2, HT-144, SK-Mel-2 and SK-Mel-334.2 human melanoma cells. Kind of assay: Trans-well matrigel cell invasion assay, melanoma cells. It counts as cell-based. As to conditions: for ability of melanoma cells to invade through matrigel: MeWo, HT-144, SK-Mel-2, SK-Mel-334.2, 1 μM for 72 hours. Here is the method: Cancer cells were serum-starved in 0.2% FBS DMEM-based media for 12 hours. Trans-well invasion chambers (354480, BD Biosciences, Bedford, Mass.) were pre-equilibrated prior to beginning the assay by adding 0.5 mL of starvation media to the top and bottom chambers. After 30 minutes, the media in the top chamber was removed, and 0.5 mL of media containing 1×10^5 cancer cells was added into each matrigel-coated trans-well insert and incubated at 37° C. for 24 hours. For neutralization antibody and/or recombinant protein experiments, antibody/recombinant protein was added to each well at the start of the assay at the following concentrations as indicated in the figures: 5-40 μg/mL anti-ApoE 1D7 (Heart Institute, University of Ottawa), 5-40 μg/mL anti-IgG (AB-108-C, R&D Systems, Minneapolis, Minn.), 100 μM recombinant human ApoE3 (4696, BioVision, Mountain View, Calif.), and 100 μM BSA (A2153, Sigma-Aldrich). Upon completion of the assay, matrigel-coated inserts were washed with PBS, the cells at the top side of each insert were scraped off, and the inserts were fixed in 4% paraformaldehyde for 15 minutes. The inserts were then cut out and mounted onto slides using VectaShield mounting medium containing DAPI (H-1000, Vector Laboratories, Burlingame, Calif.). The basal side of each insert was imaged using an inverted fluorescence microscope (Zeiss Axiovert 40 CFL) at 5× magnification, taking three representative images for each insert. The number of invaded cells was quantified using ImageJ (NIH).
The cell invasion assay was performed as previously described in detail (Pencheva et al., 2012) using a trans-well matrigel invasion chamber system (354480, BD Biosciences). In brief, various melanoma cells were cultured in the presence of DMSO, GW3965, T0901317, or Bexarotene at 1 μM for 56 hours, after which melanoma cells were switched to starvation media (0.2% FBS) for 16 hours in the presence of each drug. Following starvation, cells were seeded into matrigel-coated trans-well inserts, and the invasion assay was allowed to proceed for 24 hours at 37° C. For ApoE antibody neutralization experiments, 40 μg/mL 1D7 anti-ApoE blocking antibody (Heart Institute, University of Ottawa, Ottawa, Canada) or 40 t g/mL anti-IgG control antibody (AB-108-C, R&D Systems, Minneapolis, Minn.) was added to each trans-well insert at the start of the assay.
The cells were then serum starved for 16 hours in 0.2% FBS media in the presence of each corresponding drug or DMSO. Following serum starvation, the cells were subjected to the trans-well invasion assay using a matrigel invasion chamber system (354480, BD Biosciences). Invasion chambers were pre-equilibrated prior to the assay by adding 0.5 mL of starvation media to the top and bottom wells. Meanwhile, cancer cells were trypsinized and viable cells were counted using trypan blue. Cancer cells were then resuspended at a concentration of 2×10^5 cells/1 mL starvation media, and 0.5 mL of cell suspension, containing 1×10^5 cells, was seeded into each trans-well. The invasion assay was allowed to proceed for 24 hours at 37° C. […] Following fixation, the inserts were washed in PBS, cut out, and mounted onto slides using VectaShield mounting medium containing DAPI nuclear stain (H-1000, Vector Laboratories). The basal side of each insert was imaged using an inverted fluorescence microscope (Zeiss Axiovert 40 CFL) at 5× magnification, and the number of DAPI-positive cells was quantified using ImageJ.

For assay [2], the system named is melanoma cells (MeWo, MeWo-LM2, HT-144, SK-Mel-334.2) and endothelial cells. Kind of assay: In vitro cell proliferation, viability and serum starvation assays. It counts as cell-based, human. The arrangement: melanoma cell or endothelial cell in vitro proliferation: dose or concentration left out as unconfirmed. As to conditions: for cell proliferation or cell viability rates: MeWo, HT-144, SK-Mel-334.2, 1 μM, 5 days. Here is the method:
To determine the effects of miR-199a or miR-1908 over-expression and combinatorial LNA-induced miRNA inhibition on cell proliferation, 2.5×10^4 cells were seeded in triplicate in 6-well plates, and viable cells were counted after 5 days. […] Viable cells were counted after 8, 24, 48, 72, and 120 hours.
The number of viable cells was counter after 8, 16, and 24 hours.
To determine the effects of GW3965, T0901317, and Bexarotene on in vitro cell growth, 2.5×10^4 melanoma cells were seeded in triplicate in 6-well plates and cultured in the presence of DMSO, GW3965, T0901317, or Bexarotene at 1 μM each. After 5 days, the number of viable and dead cells was counted using the trypan blue dye (72-57-1, Sigma-Aldrich), which selectively labels dead cells.

`O=C(O)Cc1cccc(OCCCN(Cc2cccc(C(F)(F)F)c2Cl)CC(c2ccccc2)c2ccccc2)c1` [GW3965 2, 3-[3-[N-(2-Chloro-3-trifluoromethylbenzyl)-(2,2-diphenylethyl)amino]propyloxy] phenylacetic acid hydrochloride]: the tumor cell invasion result in assay [1] (MeWo cells pre-treated 48 hours) is reported as “decreased”. The “ability of melanoma cells to invade through matrigel” value in assay [1] is “consistently suppressed”. The “cell proliferation or cell viability rates” value in assay [2] was “did not affect”.
`O=S(=O)(c1ccccc1)N(CC(F)(F)F)c1ccc(C(O)(C(F)(F)F)C(F)(F)F)cc1` [T0901317 1]: the “ability of melanoma cells to invade through matrigel” value in assay [1] was “consistently suppressed”. For the same molecule, the “cell proliferation or cell viability rates” value in assay [2] was “did not affect”.
Turning to “recombinant human ApoE: recombinant human ApoE3 (4696, BioVision)”, the invasion entry in assay [1] (metastatic LM2 cells, recombinant ApoE3 100 μM vs BSA) is “significantly suppressed”. For the same molecule, in assay [2] (MeWo-LM2 cells or endothelial cells, ApoE), the “melanoma cell or endothelial cell in vitro proliferation” value was “did not affect”. For the same molecule, the “survival in serum starvation conditions” value in assay [2] (MeWo-LM2 cells or endothelial cells, ApoE, 0.2% FBS) is recorded as “did not affect”.
